Here are results for 3 compounds from patent US20030171375A1, “Method for treating ocular neovascular diseases” (priority 2002, published 2003).

The subject of one series is VEGF receptors. Briefly: cellular autophosphorylation assay, Chinese hamster ovary cells transfected with RTK gene. Particulars: transfected CHO cells.
The subject of the next series is PDGF receptors. Described as above. Particulars: transfected CHO cells. The class given is cell-based.
Series [1] deals with other RTKs including VEGF receptors. As to the kind of experiment: standard tyrosine kinase assay, other RTKs. The class given is biochemical.
A further series has as its target T1, C-Met (Homo sapiens, UniProt P08581).
T1 construct: GST-fusion proteins of the kinase domains of several tyrosine kinase receptors; GST
As to the kind of experiment: standard tyrosine kinase assay: phosphorylation of poly(GluTyr) by GST-fusion kinase domain. The class given is biochemical. Particulars: kinase inhibitory profile.

Another series deals with T2, Flk-1 (Mus musculus, UniProt P35918).
T2 construct: GST-fusion proteins of the kinase domains of several tyrosine kinase receptors; GST
The description is as above. Type of series: biochemical. To be noted: kinase inhibitory profile, Table I.

The next series deals with T3, Flt-1 (Homo sapiens, UniProt P17948).
T3 construct: GST-fusion proteins of the kinase domains of several tyrosine kinase receptors; GST
T3 sequence (P17948 827-1158 limits assumed): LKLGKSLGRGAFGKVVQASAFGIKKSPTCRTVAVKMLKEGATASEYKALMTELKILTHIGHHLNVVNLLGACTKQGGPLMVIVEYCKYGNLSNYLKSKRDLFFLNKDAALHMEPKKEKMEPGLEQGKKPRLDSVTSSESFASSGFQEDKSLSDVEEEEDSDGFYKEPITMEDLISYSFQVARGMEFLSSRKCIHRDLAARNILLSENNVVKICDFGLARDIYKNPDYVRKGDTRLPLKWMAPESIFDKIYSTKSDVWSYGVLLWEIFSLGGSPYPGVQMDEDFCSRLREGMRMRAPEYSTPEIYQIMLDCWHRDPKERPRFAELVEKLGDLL
The series is described as above. Type of series: biochemical.

For another series, the target named is T4, Tie-2 (Homo sapiens, UniProt Q02763).
T4 construct: GST-fusion proteins of the kinase domains of several tyrosine kinase receptors; GST
Described as above. Type of series: biochemical. To be noted: kinase inhibitory profile.

The test system of series [2] is mice with ischemic retinopathy. Briefly: retinal neovascularization in mice with oxygen-induced ischemic retinopathy. Particulars: P17 mice.
Experimental: Ischemic retinopathy is produced in C57/BL6J mice by the following method: Seven-day-old mice and their mothers are placed in an airtight incubator and exposed to an atmosphere of 75±3% oxygen for 5 days. Incubator temperature is maintained at 23±2° C., and oxygen is measured every 8 hours with an oxygen analyzer. After 5 days, the mice are removed from the incubator, placed in room air, and drug treatment is begun. […] Vehicle (control) or vehicle containing various concentrations of drug (volume =50 μl in neonates and 100 μl in adult mice) is placed in the stomach by gavage. After 5 days of treatment at P17, mice are sacrificed, eyes are rapidly removed and frozen in optimum cutting temperature embedding compound (OCT; Miles Diagnostics, Elkhart, IN) or fixed in 10% phosphate-buffered formalin and embedded in paraffin. Adult C57BL6J mice are also treated by gavage with drug or vehicle and after 5 days, they are sacrificed and their eyes are processed for frozen or paraffin sections.
Slides are rinsed with 0.05M Tris-buffered saline, pH 7.6 (TBS) and incubated 2 hours at room temperature with biotinylated lectin. […] Some slides are counterstained with hematoxyfn and all are mounted with Cytoseal.
The entire eye is sampled by staining sections roughly 50-60 μm apart, which provided 13 sections per eye for analysis. […] The mean of the 13 measurements from each eye is used as a single experimental value.
Another series has as its target c-Kit (Homo sapiens, UniProt P10721). To be noted: transfected CHO cells.
The target of a further series is insulin receptor (Homo sapiens, UniProt P06213). As to the kind of experiment: cellular autophosphorylation assay, Chinese hamster ovary cells transfected with RTK gene. To be noted: transfected CHO cells.
The test system of series [3] is developing retinal vessels of neonatal mice. As to the kind of experiment: drug treatment of mice during retinal vascular development. The class given is in vivo, C57/BL6J mice. The method, then: […] of newborn C57/BL6J mice are divided into treatment and control groups which received daily subcutaneous injections of 10 mg/kg of drug or vehicle, respectively. At P7 or P10, mice are anesthetized with ether, and perfused with 1 ml of phosphate-buffered saline containing 50 mg/ml of fluorescein-labeled dextran (2×10^6 average mw, Sigma, St. Louis, Mo.).. The eyes are removed and fixed for 1 hour in 10% phosphate-buffered formalin. The cornea and […] are removed and the entire retina is carefully dissected from the eyecup, radially cut from the edge of the retina to the equator in all 4 quadrants, and flat-mounted in Aquamount. with photoreceptors facing upward.

Series [4] has as its system retinal vessels in adult mice. As to the kind of experiment: effect on retinal vessels in adult mice. The class given is in vivo, C57BL6J mice. Particulars: 50 mg/kg/day, 5 days.
Experimental: Ischemic retinopathy is produced in C57/BL6J mice by the following method: Seven-day-old mice and their mothers are placed in an airtight incubator and exposed to an atmosphere of 75±3% oxygen for 5 days. Incubator temperature is maintained at 23±2° C., and oxygen is measured every 8 hours with an oxygen analyzer. After 5 days, the mice are removed from the incubator, placed in room air, and drug treatment is begun. […] Vehicle (control) or vehicle containing various concentrations of drug (volume =50 μl in neonates and 100 μl in adult mice) is placed in the stomach by gavage. After 5 days of treatment at P17, mice are sacrificed, eyes are rapidly removed and frozen in optimum cutting temperature embedding compound (OCT; Miles Diagnostics, Elkhart, IN) or fixed in 10% phosphate-buffered formalin and embedded in paraffin. Adult C57BL6J mice are also treated by gavage with drug or vehicle and after 5 days, they are sacrificed and their eyes are processed for frozen or paraffin sections. […] Slides are rinsed with 0.05M Tris-buffered saline, pH 7.6 (TBS) and incubated 2 hours at room temperature with biotinylated lectin. […] Some slides are counterstained with hematoxyfn and all are mounted with Cytoseal. […] The mean of the 13 measurements from each eye is used as a single experimental value.
In series [5] the test system is mice with choroidal neovascularization. As to the kind of experiment: laser-induced choroidal neovascularization in mice. Particulars: 50 mg/kg/day by gavage, two weeks after laser.
The target of another series is c-erbB2 (Homo sapiens, UniProt P04626). Briefly: cellular autophosphorylation assay, Chinese hamster ovary cells transfected with RTK gene. To be noted: transfected CHO cells.

SMILES strings stand for the structures. Bounds are passed on as bounds.

As a reminder, the IC50 is the concentration needed to halve the response being measured.

Sequence of c-erbB2 (P04626 23-1255): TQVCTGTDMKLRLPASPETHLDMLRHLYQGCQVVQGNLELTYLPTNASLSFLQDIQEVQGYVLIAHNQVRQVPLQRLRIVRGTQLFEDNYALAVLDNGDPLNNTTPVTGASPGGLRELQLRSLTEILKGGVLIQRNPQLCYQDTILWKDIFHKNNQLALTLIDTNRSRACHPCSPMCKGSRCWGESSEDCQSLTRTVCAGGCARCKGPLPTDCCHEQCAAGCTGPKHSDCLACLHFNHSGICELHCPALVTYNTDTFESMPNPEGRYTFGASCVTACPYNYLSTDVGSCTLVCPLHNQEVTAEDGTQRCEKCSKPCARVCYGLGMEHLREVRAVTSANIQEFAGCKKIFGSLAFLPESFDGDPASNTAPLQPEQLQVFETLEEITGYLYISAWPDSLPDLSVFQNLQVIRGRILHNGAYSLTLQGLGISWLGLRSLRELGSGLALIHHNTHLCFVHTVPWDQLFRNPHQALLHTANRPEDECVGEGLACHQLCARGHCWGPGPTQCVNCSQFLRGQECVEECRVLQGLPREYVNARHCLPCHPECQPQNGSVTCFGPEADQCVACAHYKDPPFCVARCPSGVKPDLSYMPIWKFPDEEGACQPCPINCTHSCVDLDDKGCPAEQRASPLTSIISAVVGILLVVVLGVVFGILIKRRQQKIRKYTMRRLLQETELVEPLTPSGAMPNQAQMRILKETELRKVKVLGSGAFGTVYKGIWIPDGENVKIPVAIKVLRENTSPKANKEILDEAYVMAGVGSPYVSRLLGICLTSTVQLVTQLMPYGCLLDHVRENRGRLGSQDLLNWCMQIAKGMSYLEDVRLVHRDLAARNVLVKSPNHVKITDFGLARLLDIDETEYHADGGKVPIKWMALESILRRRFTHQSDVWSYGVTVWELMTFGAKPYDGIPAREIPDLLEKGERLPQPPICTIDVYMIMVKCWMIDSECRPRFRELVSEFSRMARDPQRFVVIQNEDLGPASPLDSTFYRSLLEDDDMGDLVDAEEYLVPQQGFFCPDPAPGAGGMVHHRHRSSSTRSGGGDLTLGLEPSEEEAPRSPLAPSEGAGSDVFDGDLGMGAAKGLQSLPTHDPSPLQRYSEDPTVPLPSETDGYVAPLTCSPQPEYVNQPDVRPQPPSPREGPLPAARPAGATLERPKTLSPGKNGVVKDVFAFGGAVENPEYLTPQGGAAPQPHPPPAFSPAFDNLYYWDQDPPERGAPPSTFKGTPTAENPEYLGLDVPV
T4 sequence (Q02763 824-1096 limits assumed, species assumed): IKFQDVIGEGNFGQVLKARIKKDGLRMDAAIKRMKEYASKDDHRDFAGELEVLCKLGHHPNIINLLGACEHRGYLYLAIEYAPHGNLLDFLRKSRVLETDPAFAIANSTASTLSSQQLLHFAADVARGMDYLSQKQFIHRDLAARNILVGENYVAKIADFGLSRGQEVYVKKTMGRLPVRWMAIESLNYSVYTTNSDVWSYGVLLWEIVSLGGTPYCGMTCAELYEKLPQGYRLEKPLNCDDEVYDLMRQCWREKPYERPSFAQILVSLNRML
Sequence of insulin receptor (P06213 28-1382, species assumed): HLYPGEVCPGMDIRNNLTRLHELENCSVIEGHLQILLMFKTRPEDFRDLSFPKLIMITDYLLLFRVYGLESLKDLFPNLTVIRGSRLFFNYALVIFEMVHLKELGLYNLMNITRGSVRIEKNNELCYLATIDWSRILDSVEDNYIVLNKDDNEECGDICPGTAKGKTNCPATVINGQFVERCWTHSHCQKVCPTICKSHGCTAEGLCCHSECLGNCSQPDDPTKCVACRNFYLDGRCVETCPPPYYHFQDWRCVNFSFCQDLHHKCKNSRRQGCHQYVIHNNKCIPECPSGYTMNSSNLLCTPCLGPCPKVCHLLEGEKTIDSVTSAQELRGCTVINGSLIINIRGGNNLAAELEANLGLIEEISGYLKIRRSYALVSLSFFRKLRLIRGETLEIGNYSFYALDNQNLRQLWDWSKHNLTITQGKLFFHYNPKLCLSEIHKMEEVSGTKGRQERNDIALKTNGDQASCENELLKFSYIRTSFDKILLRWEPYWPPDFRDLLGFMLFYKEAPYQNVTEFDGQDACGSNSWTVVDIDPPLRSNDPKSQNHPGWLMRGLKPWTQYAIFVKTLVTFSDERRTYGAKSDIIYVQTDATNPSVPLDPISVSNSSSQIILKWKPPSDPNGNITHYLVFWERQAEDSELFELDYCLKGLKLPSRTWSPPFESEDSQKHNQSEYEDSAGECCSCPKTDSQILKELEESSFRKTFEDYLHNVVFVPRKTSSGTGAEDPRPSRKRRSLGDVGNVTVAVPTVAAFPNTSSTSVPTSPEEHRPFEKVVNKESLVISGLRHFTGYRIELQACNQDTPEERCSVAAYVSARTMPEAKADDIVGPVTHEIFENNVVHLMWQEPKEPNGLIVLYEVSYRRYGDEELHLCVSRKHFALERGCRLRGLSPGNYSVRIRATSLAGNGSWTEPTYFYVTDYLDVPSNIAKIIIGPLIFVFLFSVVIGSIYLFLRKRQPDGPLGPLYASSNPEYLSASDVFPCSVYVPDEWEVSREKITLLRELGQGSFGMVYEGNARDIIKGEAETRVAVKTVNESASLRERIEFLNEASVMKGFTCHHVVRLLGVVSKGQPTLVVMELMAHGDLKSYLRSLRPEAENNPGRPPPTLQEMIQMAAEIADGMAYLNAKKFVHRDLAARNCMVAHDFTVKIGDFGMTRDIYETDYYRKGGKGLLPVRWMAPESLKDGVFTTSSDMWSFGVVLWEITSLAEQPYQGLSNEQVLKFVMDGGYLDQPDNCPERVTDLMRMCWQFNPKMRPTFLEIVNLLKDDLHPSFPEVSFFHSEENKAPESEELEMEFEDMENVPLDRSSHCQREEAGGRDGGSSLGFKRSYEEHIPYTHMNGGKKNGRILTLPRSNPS
T2 sequence (P35918 832-1160 limits assumed): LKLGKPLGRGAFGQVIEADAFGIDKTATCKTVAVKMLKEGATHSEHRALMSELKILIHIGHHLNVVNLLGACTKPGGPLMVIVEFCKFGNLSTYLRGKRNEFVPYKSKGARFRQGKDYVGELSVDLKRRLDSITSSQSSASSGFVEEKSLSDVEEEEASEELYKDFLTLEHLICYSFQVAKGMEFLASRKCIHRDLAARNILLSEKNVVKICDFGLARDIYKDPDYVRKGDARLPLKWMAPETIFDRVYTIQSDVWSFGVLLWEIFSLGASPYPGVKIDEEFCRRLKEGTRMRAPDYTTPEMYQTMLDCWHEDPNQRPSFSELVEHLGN
Sequence of c-Kit (P10721 26-976): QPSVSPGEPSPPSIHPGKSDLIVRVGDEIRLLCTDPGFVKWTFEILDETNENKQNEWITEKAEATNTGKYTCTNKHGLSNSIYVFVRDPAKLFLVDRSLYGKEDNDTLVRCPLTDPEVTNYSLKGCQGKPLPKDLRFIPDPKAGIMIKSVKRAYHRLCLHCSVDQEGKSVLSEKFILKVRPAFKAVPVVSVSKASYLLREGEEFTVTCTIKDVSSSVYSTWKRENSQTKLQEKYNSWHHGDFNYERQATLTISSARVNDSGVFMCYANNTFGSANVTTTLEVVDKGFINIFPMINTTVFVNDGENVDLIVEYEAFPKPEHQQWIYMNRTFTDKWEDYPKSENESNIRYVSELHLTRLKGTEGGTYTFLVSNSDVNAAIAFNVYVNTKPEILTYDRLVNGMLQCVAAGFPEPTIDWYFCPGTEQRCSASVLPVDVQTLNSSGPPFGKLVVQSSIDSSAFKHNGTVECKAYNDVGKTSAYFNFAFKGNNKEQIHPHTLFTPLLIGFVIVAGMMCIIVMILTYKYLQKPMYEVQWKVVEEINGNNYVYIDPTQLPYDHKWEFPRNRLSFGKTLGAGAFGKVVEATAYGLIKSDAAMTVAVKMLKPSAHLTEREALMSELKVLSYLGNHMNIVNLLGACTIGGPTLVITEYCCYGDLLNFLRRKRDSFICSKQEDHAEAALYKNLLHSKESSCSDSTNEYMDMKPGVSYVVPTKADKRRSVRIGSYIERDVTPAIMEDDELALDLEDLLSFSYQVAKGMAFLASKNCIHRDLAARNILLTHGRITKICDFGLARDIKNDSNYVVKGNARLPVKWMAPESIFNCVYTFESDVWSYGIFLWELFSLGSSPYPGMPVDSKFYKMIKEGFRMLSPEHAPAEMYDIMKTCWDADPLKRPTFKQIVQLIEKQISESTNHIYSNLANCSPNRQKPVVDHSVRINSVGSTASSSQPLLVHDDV
T1 sequence (P08581 1078-1345 limits assumed): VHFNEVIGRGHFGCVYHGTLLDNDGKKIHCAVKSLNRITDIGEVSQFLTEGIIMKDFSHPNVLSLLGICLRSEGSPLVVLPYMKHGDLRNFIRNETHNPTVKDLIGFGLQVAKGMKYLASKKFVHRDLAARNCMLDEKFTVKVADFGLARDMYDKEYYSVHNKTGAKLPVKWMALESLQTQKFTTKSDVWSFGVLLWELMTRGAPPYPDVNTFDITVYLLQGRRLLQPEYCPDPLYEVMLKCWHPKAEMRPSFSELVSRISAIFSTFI
Experimental for PDGF receptors: (§1) In vivo activity requires drugs to enter cells and therefore agents are tested in cellular autophosphorylation assays, using Chinese hamster ovary cells transfected with one of several RTK genes.
Experimental for c-erbB2: as §1
Experimental for insulin receptor: as §1

Turning to `Cc1ccc(NC(=O)c2ccc(CN3CCN(C)CC3)cc2)cc1Nc1nccc(-c2cccnc2)n1` [CGP 57 148B], the “inhibition of autophosphorylation of VEGF receptors” value (“inhibition … of VEGF receptors” below) in the series on VEGF receptors is recorded as “poor inhibitors”. In addition, the “inhibition of autophosphorylation of PDGF receptors” value (“inhibition … of PDGF receptors” below) with PDGF receptors is reported as “potent inhibitors”. The “inhibitory activity on other RTKs including VEGF receptors” value in [1] is on record as “little or no inhibitory activity”.
Turning to `Cc1ccc(NC(=O)c2ccccc2)cc1Nc1nccc(-c2cccnc2)n1` [CGP 53 716], the IC50 against C-Met was greater than 10000 nM; at Flk-1, greater than 1000 nM; on Flt-1 (kinase inhibitory profile), greater than 1000 nM; against Tie-2 it was greater than 1000 nM. In addition, the “inhibition … of VEGF receptors” value with VEGF receptors is “poor inhibitors”. For the same compound, the “inhibition … of PDGF receptors” value in the series with PDGF receptors was “potent inhibitors”. In [1], the “inhibitory activity on other RTKs including VEGF receptors” value was “little or no inhibitory activity”.
Consider `Clc1ccc(Nc2nnc(Cc3ccncc3)c3ccccc23)cc1` [CGP 79787D], for which, in [2] (0.25 mg/kg), the “decrease of total endothelial staining in the retina” value was “not statistically significant” and the “staining in the inner nuclear layer” value is “no identifiable decrease”. For the same compound, in series [2] (2.5 mg/kg twice a day), the “endothelial cell staining in the retina” value is recorded as “significantly less than vehicle-treated controls” and the “endothelial staining in the inner nuclear layer” value is “some decrease”. Further, the “endothelial cell staining in inner nuclear layer and outer plexiform layer (deep capillary bed)” value in series [2] (25 mg/kg twice a day) is “striking absence”. Moreover, the “neovascularization (endothelial cells on the surface of the retina)” value in series [2] (25 mg/kg twice a day, gavage, 5 days) was “complete inhibition”. In addition, in series [2] (25 mg/kg twice a day, gavage, 5 days, versus vehicle), the “endothelial cell staining within the retina” value is “dramatic decrease”. In addition, the “inhibition of autophosphorylation of c-Kit” value against c-Kit is reported as “inhibits”. Moreover, at insulin receptor, the “inhibition of autophosphorylation of insulin receptor” value is reported as “poor inhibitor”. In addition, in series [3] (10 mg/kg daily injections from P0, P7), the “extension of retinal vessels toward the periphery at P7” value is “only extended about half way to the periphery”. Moreover, the “extension of superficial capillary bed at P10” value in series [3] (10 mg/kg daily injections from P0, P10) is “has not yet reached the edge of the retina”. In addition, in the series with VEGF receptors, the “inhibition … of VEGF receptors” value is “inhibits”. Besides, the “total area of endothelial staining in the retina or appearance of retinal vessels versus vehicle” value in [4] is on record as “no difference”. The “inhibition of phosphorylation by kinase domain of human VEGF receptor 1” value against Flt-1 is reported as “good inhibitor”. The “inhibition … of PDGF receptors” value in the series with PDGF receptors was “inhibits”. Moreover, in series [5], the “appearance of overlying retinal vessels” value is “appeared normal” and the “choroidal neovascularization at site of laser-induced rupture of Bruch's membrane” value was “very little if any choroidal neovascularization”. The “inhibition of autophosphorylation of c-erbB2” value at c-erbB2 is “poor inhibitor”.
